# Entries after “also recorded” stand apart in the source; their conditions may differ.
# Experiments:
# [1] = tested on: RCS rats; assay: Histology of the retina after injection; type: in vivo, rat; conditions: 3 days after injection, preliminary
# Source text: (§1) This finding was reproduced in 3 of 3 RCS rats injected with Rubpy-C17, and in 2 of 2 control (sham injection) RCS rats.
# [2] = tested on: endogenous ion channels of chromaffin cells; assay: Voltage-clamp current-voltage relationship and steady-state activation; type: cell-based, mouse; conditions: before and during light illumination
# Source text: (§2) FIGS. 21A-21H depict data from various experiments related to characteristics of RubpyC17-loaded cells. […] Inset images shown to the right of trace confirmed proper integration of RubpyC17 in patched cells. FIGS. 21C-21E show the light-induced action potential firing in chromaffin cells was not due to biophysical changes in voltage-gated ion channels as there were no significant changes in current-voltage relationships (21C-21D) nor in steady-state activation curve (21E) in RubpyC17-loaded chromaffin cells before (open circle) or during (open circle) light illumination. […] Peak inward currents from each stimulation jump were plotted against corresponding stimulating voltages (n=6). […] Data from representative cell is shown (n=5). […] Currents resulting from capacitor-like behavior of chromaffin cell membranes during hyperpolarizing jumps to −85 mV from a resting membrane potential of −80 mV were recorded 5 min following giga-seal formation for amphoterecin B (bottom trace) or 10 min following giga-seal formation for RubpyC17 (top trace).
# To examine whether light-activated RubpyC17 can directly interact and open or block endogenous ion channels, HEK293T cells were preincubated with RubpyC17, and patch-clamped in a voltage-clamp configuration. […]
# [3] = tested on: chromaffin cells; assay: Cell-attached patch test for membrane perforation; type: cell-based, mouse; conditions: in patch pipette, RubpyC17 18 μM, 10 min, amphotericin B within 5 min
# Source text: as §2
# Finally, to test whether illumination of RubpyC17 incorporated in cell membranes causes nonspecific membrane poration or other damage, 18 μM RubpyC17 was loaded inside a patch pipette and attached to a cell (gigaseal formation) in the cell-attached configuration. This is the same configuration used routinely for perforated-patch recording. […]
# [4] = tested on: HEK293T cells; assay: Whole cell patch clamp, current-clamp membrane potential under light; type: cell-based, human
# Protocol: Membrane potential was monitored using whole cell patch clamp in current-clamp mode. Cultured cells (INS and HEK293) were plated on a glass-bottomed culture dishes 1-3 days prior to recording. Cells were incubated in standard extracellular solution with or without 10 μM RubpyC17 compound for approximately 1.5-2 minutes, then washed and incubated with standard extracellular solution without additional supplementation, or with 2-5 mM ascorbate, 100 μM sodium ferrocyanide, or 100-200 μM potassium ferricyanide, as indicated. The chamber was transferred to the microscope stage. Extracellular solution consisted of 140 mM NaCl, 2.8 mM KCl, 10 mM HEPES, 1 mM MgCl2, 2 mM CaCl2, 10 mM glucose, pH adjusted to 7.3, and osmolarity adjusted to 300-310. Conventional whole-cell patch clamp recordings were performed with an EPC-9 amplifier and Pulse software (HEKA Electronics). Pipette electrodes of 1.8-3.5 Mohm were fire polished before use. Intracellular solution consisted of: 145 mM KCl, 10 mM NaCl, 1 mM MgCl2, 1 mM EGTA, 2 mM ATP, 0.3 mM GTP and 10 mM HEPES, pH adjusted to 7.3 and osmolarity adjusted to 290-300 mOsm. To monitor changes in membrane voltage/potential, cells were patch clamped in current-clamp mode. Access resistances were in the range of 3-8 Mohm. Using Pulse, membrane potentials were recorded before, during and after illumination by the argon ion laser at 488 nm with an irradiance value of 0.458 mE s^−1 m^−2 or by a xenon lamp source through a 470/40 nm bandpass excitation filter with an irradiance value of 0.480 mE s^−1 m^−2. […]
# Initial attempts were tied to INS and HEK cells, both cells that are not excitable under normal conditions (INS cells were maintained in low glucose <3 mM to prevent action potentials). […] To monitor the plasma membrane potential, the cells were patch-clamped in whole-cell configuration in current-clamp mode and membrane voltages were recorded while illuminating the cell at 488 nm (0.46-0.48 mE s^−1 m^−2), though other wavelengths are useful, depending on the embodiment. […]
# [5] = tested on: RCS rats; assay: Extracellular recording from superior colliculus after intravitreal injection; type: in vivo, rat
# Source text: FIGS. 27C-27F depict data related to administration of Rubpy-C17. White light was used for illumination in panels A, C, and D, while blue light (450 nm) was used in panels B, E, and F.
# as §1
compound,measurement,setting,value
"CCCCCCCCCCCCCCCCCc1ccnc(-c2cc(C)ccn2)c1.F[P-](F)(F)(F)(F)F.F[P-](F)(F)(F)(F)F.[Ru+2].c1ccc(-c2ccccn2)nc1.c1ccc(-c2ccccn2)nc1 [RubpyC17, [Ru(bpy)2(bpy-C17)](PF6)2]",retinal histology / pathology,[1],no evidence of retinal cell death or white blood cell infiltrates; also recorded: absence of obvious signs of deleterious effects
same,biophysical properties of endogenous ion channels,[2],does not alter the biophysical properties of endogenous ion channels
same,capacitive charging transient (membrane perforation),[3],an increase in the capacitive charging transient was not detected; also recorded: did not perforate chromaffin cells
same,light-induced hyperpolarization,[4]; 100 uM ferricyanide in extracellular solution,20.9 ± 4.9 mV
same,light-induced depolarization with ferrocyanide as reductant,"[4]; HEK293T, 0.1 mM ferrocyanide",light-induced depolarization was also observed
same,light-induced depolarization,"[4]; HEK293 cells, presence of ascorbate",14.6 ± 2.4 mV
same,rats in which the finding was reproduced,[5]; RCS rats injected with Rubpy-C17,3 of 3
same,time after injection with light-induced SC electrical responses,"[5]; eye injection, RCS rats",up to 3 days
same,light-elicited electrical activity in superior colliculus field recording,"[5]; intravitreal, final concentration 100 μM, 30 minutes later, blind RCS rats",elicited reproducible and stereotypical electrical activity

# — patent publication US10232043B2, “Photoactivated molecules for light-induced modulation of the activity of electrically excitable cells and methods of using the same” (UNIVERSITY OF SOUTHERN CALIFORNIA, priority 2015, dated 2019)
